How the values were obtained:
[1] = tested on: IMQ-induced, psoriasis-like skin inflammation; assay type: in vivo, C57BL/6 mice; conditions: for penetration of the skin: mouse, in vivo
Procedure: Western blot analysis was performed as described before. The following antibodies were used and purchased from Cell Signaling: anti-IκBζ (9244), anti-phospho-STAT3 at Tyr705 (9145), anti-phospho-STAT3 at Ser727 (9134), anti-STAT3 (12640), anti-p65 (8242), anti-EZH2 (5246), anti-pRB (phospho-RB at Ser807/811; 8516), anti-FoxM1 (5436), anti-H3 (4499), anti-CDK4 (12790), anti-CDK6 (13331), anti-CDK9 (2316), anti-cyclin D1 (2978), anti-cyclin D2 (3741), anti-cyclin D3 (2936), anti-cJUN (9165), anti-H3K27me3 (9733), anti-GAPDH (2118), anti-H3 (9715) and anti-β-actin (3700). Anti-β-Gal (sc377257) and anti-GFP (sc9996) were obtained from Santa Cruz Biotechnology. Anti-pEZH2 at T345 (61242) anti-pEZH2 at T487 (12820) were purchased from Active Motif and anti-pan-methyl-lysine antibody was purchased from Enzo (ADI-KAP-TF121-E). For detection of mouse IκB, a self-made antibody raised against peptides […] (SEQ ID NO:3) and […] (SEQ ID NO:4) was applied.
Gene expression analyses were performed as described. Relative gene expression was analyzed using self-designed primers ordered at Metabion (not shown). Relative mRNA levels were calculated by normalization to the human reference gene RPL37A or the mouse reference gene Actin using the 2-ΔΔCt method.
Experiments were conducted in accordance with the German law guide-lines of animal care. Ears of female C57BL/6 mice (8-12 weeks old) were topically treated for 6 consecutive days with 5 mg Aldara cream (containing 5% imiquimod, 3M Pharmaceutical) and 0.02 mg of abemaciclib (in 10 μL ethanol), 0.05 mg CPI-169 (in 10 μL ethanol) or vehicle control. At day 7, mice were sacrificed and analysed. For IL-36α-mediated psoriasis induction, ears of male C57BL/6 mice (8-12 weeks old) were treated by intradermal injections using 1 μg murine IL-36α (aa 8-160, R&D) or PBS control for 5 consecutive days. For application of the vehicle control, abemaciclib (0.02 mg) or CPI-169 (0.05 mg), substances were mixed with Miglyol 812 (Carl Roth) in a ratio of 1:4. Inhibitors were topically applicated 6 h before intradermal injections of IL-36α or PBS were applied. Mice were sacrificed and analysed at day 6.
Sample preparation was performed as described. The following anti-mouse antibodies from BioLegend were used: anti-CD45 FITC (103107), anti-CD11b PacificBlue (101223), anti-Ly6G PE (127607), anti-F4/80 APC (123115), anti-CD11c Pacific Blue (117322), anti-MHC-II APC (107613), anti-CD172a PE (144011) and anti-Silec-H PE (129605). Anti-PDCA-1 APC (17-2092-80) and anti-αβTCR PE (HM3628) were purchased from Invitrogen, and anti-γδ-TCR APC (17-5711-82) from Sigma. Data was acquired on a LSRII flow cytometer (Becton Dickson).
Ear sections from mice were fixed in 10% formalin (Carl Roth) and subsequently embedded in paraffin. 5-μm sections were prepared and incubated with the following antibodies from Cell Signaling: pSTAT3 (9145), pRB (8516) and H3K27me3 (9733). For staining of human skin samples, EZH2 antibody (Cell Signaling, 5246) was used. Antigen retrieval was performed in 1 mM EDTA pH 8.0 for pSTAT3, and 10 mM citrate buffer pH 6.0+0.5% Triton X-100 for EZH2, H3K27me3 and pRB. After incubation with peroxidase-coupled secondary antibodies, sections were stained with DAB substrate.

[2] = tested on: IL-36-triggered psoriasis-like dermatitis; test: IL-36α-mediated psoriasis-like dermatitis mouse model, topical treatment of ears; assay type: in vivo, C57BL/6 mice
Procedure: Western blot analysis was performed as described before. The following antibodies were used and purchased from Cell Signaling: anti-IκBζ (9244), anti-phospho-STAT3 at […] (9145), anti-phospho-STAT3 at […] (9134), anti-STAT3 (12640), anti-p65 (8242), anti-EZH2 (5246), anti-pRB (phospho-RB at […]/811; 8516), anti-FoxM1 (5436), anti-H3 (4499), anti-CDK4 (12790), anti-CDK6 (13331), anti-CDK9 (2316), anti-cyclin D1 (2978), anti-cyclin D2 (3741), anti-cyclin D3 (2936), anti-cJUN (9165), anti-H3K27me3 (9733), anti-GAPDH (2118), anti-H3 (9715) and anti-β-actin (3700). Anti-β-Gal (sc377257) and anti-GFP (sc9996) were obtained from Santa Cruz Biotechnology. Anti-pEZH2 at […] (61242) anti-pEZH2 at […] (12820) were purchased from Active Motif and anti-pan-methyl-lysine antibody was purchased from Enzo ([…]). For detection of mouse IκB, a self-made antibody raised against peptides […] NO:3) and […] NO:4) was applied. Gene expression analyses were performed as described. Relative gene expression was analyzed using self-designed primers ordered at Metabion (not shown). Relative mRNA levels were calculated by normalization to the human reference gene RPL37A or the mouse reference gene Actin using the 2-ΔΔCt method. Experiments were conducted in accordance with the German law guide-lines of animal care. Ears of female C57BL/6 mice (8-12 weeks old) were topically treated for 6 consecutive days with 5 mg Aldara cream (containing 5% imiquimod, 3M Pharmaceutical) and 0.02 mg of abemaciclib (in 10 μL ethanol), 0.05 mg CPI-169 (in 10 μL ethanol) or vehicle control. At day 7, mice were sacrificed and analysed. For IL-36α-mediated psoriasis induction, ears of male C57BL/6 mice (8-12 weeks old) were treated by intradermal injections using 1 μg murine IL-36α (aa 8-160, R&D) or PBS control for 5 consecutive days. For application of the vehicle control, abemaciclib (0.02 mg) or CPI-169 (0.05 mg), substances were mixed with Miglyol 812 (Carl Roth) in a ratio of 1:4. Inhibitors were topically applicated 6 h before intradermal injections of IL-36α or PBS were applied. Mice were sacrificed and analysed at day 6. […]

[3] = tested on: TH1 cytokines and tumor-infiltrating T cells; conditions: experimental cancer model, Deng et al.; cited from earlier work
[4] = flow cytometry of IMQ-treated mouse ears, day 7

With `CCS(=O)(=O)N1CCC([C@@H](C)n2c(C)c(C(=O)NCc3c(OC)cc(C)[nH]c3=O)c3ccccc32)CC1` [CPI-169] the “IκBζ expression in the skin, phosphorylation of EZH2 at T345 and of STAT3 at Y705” value ([1]; IMQ-treated mouse skin, day 7) was “completely abrogated”, the “expression of IκBζ target genes (Cxcl2, Cxcl5) and DC- and T-cell-derived cytokines (Il17a, Il23a)” value ([1]; IMQ-treated skin, day 7) was “significantly downregulated” and the “H3K27me3 expression in the epidermis (EZH2 inhibition)” value ([1]; ear skin sections of treated mice, FIG. 10c) was “loss”. The “immune cell infiltration (neutrophils, macrophages and T cells)” value [1, 4] was “fully abrogated”, the “number of infiltrating plasmacytoid (pDC) and myeloid dendritic cells (mDC)” value [1, 4] was “significantly suppressed” and the “penetration of the skin” value [1] was “effectively penetrated the skin”. The “IMQ-induced, psoriasis-like skin inflammation (ear thickening, keratinocyte hyperproliferation, immune cell infiltration)” value ([1]; topical, daily 6 days, abemaciclib 0.02 mg, CPI-169 0.05 mg per ear) was “completely suppressed”, the “IκBζ target gene expression and key cytokine expression (Il17a, Il23a)” value ([2]; IL-36α-treated skin, FIG. 12g) was “effectively blocked” and the “keratinocyte hyperproliferation and immune cell infiltration” value ([2]; intradermal IL-36α 5 days, topical inhibitor, day 6) was “effectively blocked”. For the same compound, the “IL-36-mediated expression of IκBζ, phosphorylation of EZH2 at T345 and activation of STAT3 (pSTAT3 Y705)” value ([2]; skin of treated mouse ears, day 6) was “suppressed”.
With `CCN1CCN(Cc2ccc(Nc3ncc(F)c(-c4cc(F)c5nc(C)n(C(C)C)c5c4)n3)nc2)CC1` [abemaciclib] the “penetration of the skin” value [1] was “effectively penetrated the skin”.
In the case of `CN1CCN(c2ccc(Nc3ncc4cc5n(c4n3)C3(CCCCC3)CNC5=O)nc2)CC1` [trilaciclib], the “levels of TH1 cytokines and tumor-infiltrating T cells” value [3] is given as “increased”.

Reference: US20220280511A1, “CDK4/6 INHIBITORS FOR THE TREATMENT OF PSORIASIS” (EBERHARD KARLS UNIVERSITAET TUEBINGEN MEDIZINISCHE FAKULTAET, priority 2019, published 2022)
